Tests used:
[1] = system: HCT116 MTAP null cells; test: HCT116 MTAP null cell proliferation / viability (CellTiter-Glo, 6 days); type: cell-based; settings: HCT116-MTAP null, 144 h, HCT116 MTAP null cells, 6 days, CellTiter-Glo; read-out: HCT-116 MTAP null IC50
Summary of the method: (§1)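 IC50 values derive from sigmoidal dose-response fits, some with Hill slope fixed at −1 and top constrained to 100%, others from 4-parameter logistic models. They reflect CellTiter-Glo viability after 6 days of compound exposure at up to 10 or 50 μM.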

[2] = system: HCT116 WT cells; test: HCT116 WT cell proliferation / viability (CellTiter-Glo, 6 days); type: cell-based; settings: Homo sapiens, HCT-116, 144 h, HCT116 WT cells, 6 days, CellTiter-Glo; read-out: HCT-116 WT IC50
Summary of the method: as §1

SMILES | IC50 [1] [nM] | IC50 [2] [nM]
CC1OCc2c1c(N)nc1ccc(C(=O)N(Cc3ccc(C(F)(F)F)cn3)C3CCCC3C#N)cc21 (stereo not shown) [Example 897, 4-amino-N-(2-cyanocyclopentyl)-3-methyl-N-((5-(trifluoromethyl)pyridin-2-yl)methyl)-1,3-dihydrofuro[3,4-c]quinoline-8-carboxamide] | 24 | 110
CC1OCc2c1c(N)nc1ccc(C(=O)N(Cc3ccc(C#N)cn3)C3CCCC3C#N)cc21 (stereo not shown) [Example 898, 4-amino-N-(2-cyanocyclopentyl)-N-((5-cyanopyridin-2-yl)methyl)-3-methyl-1,3-dihydrofuro[3,4-c]quinoline-8-carboxamide] | 52 | 290
CC1OCc2c1c(N)nc1ccc(C(=O)N(Cc3ccc(C(F)(F)F)cn3)C3CCOC3)cc21 (stereo not shown) [Example 899, 4-amino-3-methyl-N-(tetrahydrofuran-3-yl)-N-((5-(trifluoromethyl)pyridin-2-yl)methyl)-1,3-dihydrofuro[3,4-c]quinoline-8-carboxamide] | 130 | 9700
CC1OCc2c1c(N)nc1ccc(C(=O)N(Cc3ccc(C(F)(F)F)cn3)[C@H]3[C@@H]4COC[C@@H]43)cc21 (stereo partly drawn) [Example 900, 4-amino-N-((1R,5S,6r)-3-oxabicyclo[3.1.0]hexan-6-yl)-3-methyl-N-((5-(trifluoromethyl)pyridin-2-yl)methyl)-1,3-dihydrofuro[3,4-c]quinoline-8-carboxamide] | 290 | > 10000
CC1OCc2c1c(N)nc1ccc(C(=O)N(Cc3ccc(C(F)(F)F)cn3)C3CCOCC3C)cc21 (stereo not shown) [Example 901, 4-amino-3-methyl-N-(3-methyltetrahydro-2H-pyran-4-yl)-N-((5-(trifluoromethyl)pyridin-2-yl)methyl)-1,3-dihydrofuro[3,4-c]quinoline-8-carboxamide] | 42 | 430
CO[C@@H]1COCC[C@H]1N(Cc1ccc(C(F)(F)F)cn1)C(=O)c1ccc2nc(N)c3c(c2c1)COC3C (stereo partly drawn) [Example 902, 4-amino-N-((3S,4R)-3-methoxytetrahydro-2H-pyran-4-yl)-3-methyl-N-((5-(trifluoromethyl)pyridin-2-yl)methyl)-1,3-dihydrofuro[3,4-c]quinoline-8-carboxamide] | 34 | 330
CO[C@H]1COCC[C@@H]1N(Cc1ccc(C(F)(F)F)cn1)C(=O)c1ccc2nc(N)c3c(c2c1)COC3C (stereo partly drawn) [Example 903, 4-amino-N-((3R,4S)-3-methoxytetrahydro-2H-pyran-4-yl)-3-methyl-N-((5-(trifluoromethyl)pyridin-2-yl)methyl)-1,3-dihydrofuro[3,4-c]quinoline-8-carboxamide] | 58 | 4000
CC1OCc2c1c(N)nc1ccc(C(=O)N(Cc3ccc(C(F)(F)F)cn3)C3CC3C3CC3)cc21 (stereo not shown) [Example 904, N-([1,1′-bi(cyclopropan)]-2-yl)-4-amino-3-methyl-N-((5-(trifluoromethyl)pyridin-2-yl)methyl)-1,3-dihydrofuro[3,4-c]quinoline-8-carboxamide] | 31 | 1600
CC1OCc2c1c(N)nc1ccc(C(=O)N(Cc3ccc(C(F)(F)F)cn3)C3CC34CCCCC4)cc21 (stereo not shown) [Example 905, 4-amino-3-methyl-N-(spiro[2.5]octan-1-yl)-N-((5-(trifluoromethyl)pyridin-2-yl)methyl)-1,3-dihydrofuro[3,4-c]quinoline-8-carboxamide] | 80 | 4600
CCOC1CC1N(Cc1ccc(C(F)(F)F)cn1)C(=O)c1ccc2nc(N)c3c(c2c1)COC3C (stereo not shown) [Example 907, 4-amino-N-(2-ethoxycyclopropyl)-3-methyl-N-((5-(trifluoromethyl)pyridin-2-yl)methyl)-1,3-dihydrofuro[3,4-c]quinoline-8-carboxamide] | 40 | > 1000
CC1OCc2c1c(N)nc1ccc(C(=O)N(Cc3ccc(C(F)(F)F)cn3)C3CC3(C)C)cc21 (stereo not shown) [Example 908, 4-amino-N-(2,2-dimethylcyclopropyl)-3-methyl-N-((5-(trifluoromethyl)pyridin-2-yl)methyl)-1,3-dihydrofuro[3,4-c]quinoline-8-carboxamide] | 123 | 6200
CC1OCc2c1c(N)nc1ccc(C(=O)N(Cc3ccc(C(F)(F)F)cn3)C3CC34CCCC4)cc21 (stereo not shown) [Example 909, 4-amino-3-methyl-N-(spiro[2.4]heptan-1-yl)-N-((5-(trifluoromethyl)pyridin-2-yl)methyl)-1,3-dihydrofuro[3,4-c]quinoline-8-carboxamide] | 215 | 8000
CC1OCc2c1c(N)nc1ccc(C(=O)N(Cc3ccc(C(F)(F)F)cn3)[C@H](C)c3ncccn3)cc21 (stereo partly drawn) [Example 911, 4-amino-3-methyl-N-((R)-1-(pyrimidin-2-yl)ethyl)-N-((5-(trifluoromethyl)pyridin-2-yl)methyl)-1,3-dihydrofuro[3,4-c]quinoline-8-carboxamide] | 21 | 173
CC1OCc2c1c(N)nc1ccc(C(=O)N(Cc3ccc(C#N)cn3)CC3(C#N)CC3)cc21 (stereo not shown) [Example 913, 4-amino-N-((1-cyanocyclopropyl)methyl)-N-((5-cyanopyridin-2-yl)methyl)-3-methyl-1,3-dihydrofuro[3,4-c]quinoline-8-carboxamide] | 49 | 1700
CC1OCc2c1c(N)nc1ccc(C(=O)N(CC3=CCCOC3)Cc3ccc(C(F)(F)F)cn3)cc21 (stereo not shown) [Example 915, 4-amino-N-((5,6-dihydro-2H-pyran-3-yl)methyl)-3-methyl-N-((5-(trifluoromethyl)pyridin-2-yl)methyl)-1,3-dihydrofuro[3,4-c]quinoline-8-carboxamide] | 29 | 4200
CC1OCc2c1c(N)nc1ccc(C(=O)N(Cc3ccc(C(F)(F)F)cn3)Cc3ccnc4[nH]ccc34)cc21 (stereo not shown) [Example 916, N-((1H-pyrrolo[2,3-b]pyridin-4-yl)methyl)-4-amino-3-methyl-N-((5-(trifluoromethyl)pyridin-2-yl)methyl)-1,3-dihydrofuro[3,4-c]quinoline-8-carboxamide] | 6 | 200
CC1OCc2c1c(N)nc1ccc(C(=O)N(Cc3ccc(C(F)(F)F)cn3)CC3(C#N)CC3)cc21 (stereo not shown) [Example 917, 4-amino-N-((1-cyanocyclopropyl)methyl)-3-methyl-N-((5-(trifluoromethyl)pyridin-2-yl)methyl)-1,3-dihydrofuro[3,4-c]quinoline-8-carboxamide] | 17 | 1560
CC1OCc2c1c(N)nc1ccc(C(=O)N(Cc3ccc(C(F)(F)F)cn3)Cc3cnc(N)s3)cc21 (stereo not shown) [Example 918, 4-amino-N-((2-aminothiazol-5-yl)methyl)-3-methyl-N-((5-(trifluoromethyl)pyridin-2-yl)methyl)-1,3-dihydrofuro[3,4-c]quinoline-8-carboxamide] | 54 | > 1000
CC1OCc2c1c(N)nc1ccc(C(=O)N(C)Cc3ccc(C(F)(F)F)cn3)cc21 (stereo not shown) [Example 929, 4-amino-N,3-dimethyl-N-((5-(trifluoromethyl)pyridin-2-yl)methyl)-1,3-dihydrofuro[3,4-c]quinoline-8-carboxamide] | 200 | > 1000
CCN(Cc1ccc(C(F)(F)F)cn1)C(=O)c1ccc2nc(N)c3c(c2c1)COC3C (stereo not shown) [Example 930, 4-amino-N-ethyl-3-methyl-N-((5-(trifluoromethyl)pyridin-2-yl)methyl)-1,3-dihydrofuro[3,4-c]quinoline-8-carboxamide] | 61 | > 10000
CC1OCc2c1c(N)nc1ccc(C(=O)N(Cc3ccc(C(F)(F)F)cn3)C(C)C)cc21 (stereo not shown) [Example 931, 4-amino-N-isopropyl-3-methyl-N-((5-(trifluoromethyl)pyridin-2-yl)methyl)-1,3-dihydrofuro[3,4-c]quinoline-8-carboxamide] | 72 | 9600
CN(Cc1ccc(C(F)(F)F)cn1)C(=O)c1ccc2nc(N)c3c(c2c1)COC3(C)C [Example 932, 4-amino-N,3,3-trimethyl-N-((5-(trifluoromethyl)pyridin-2-yl)methyl)-1,3-dihydrofuro[3,4-c]quinoline-8-carboxamide] | 860 | 1700
CCN(Cc1ccc(C(F)(F)F)cn1)C(=O)c1ccc2nc(N)c3c(c2c1)COC3(C)C [Example 933, 4-amino-N-ethyl-3,3-dimethyl-N-((5-(trifluoromethyl)pyridin-2-yl)methyl)-1,3-dihydrofuro[3,4-c]quinoline-8-carboxamide] | 560 | > 10000
CC(C)N(Cc1ccc(C(F)(F)F)cn1)C(=O)c1ccc2nc(N)c3c(c2c1)COC3(C)C [Example 934, 4-amino-N-isopropyl-3,3-dimethyl-N-((5-(trifluoromethyl)pyridin-2-yl)methyl)-1,3-dihydrofuro[3,4-c]quinoline-8-carboxamide] | 79 | > 1000
CC1(C)OCc2c1c(N)nc1ccc(C(=O)N(Cc3ccc(C(F)(F)F)cn3)C3CC3)cc21 [Example 935, 4-amino-N-cyclopropyl-3,3-dimethyl-N-((5-(trifluoromethyl)pyridin-2-yl)methyl)-1,3-dihydrofuro[3,4-c]quinoline-8-carboxamide] | 630 | > 1000
CC(c1ncc(C(F)(F)F)cc1C#N)N(C)C(=O)c1cc2c(cc1F)nc(N)c1cnn(C)c12 (stereo not shown) [Example 936, 4-amino-N-(1-(3-cyano-5-(trifluoromethyl)pyridin-2-yl)ethyl)-7-fluoro-N,1-dimethyl-1H-pyrazolo[4,3-c]quinoline-8-carboxamide] | 721 | 18700

From patent US20240101570A1 (AMGEN INC., priority 2020, published 2024)
